What follows are molecules tested on C6 (assay: Neutralization of colony - stimulating activity was determined by incubating supernatants from stromal cells stimulated by compound (1000 ng/mL) with an antibody raised against KC[38-72].). Conditions: not given.
Format: functional, Mus musculus
`NCCCC[C@H](NC(=O)[C@H](CCCC[C@H](NC(=O)[C@H](CC(=O)O)NC(=O)[C@H](CCC(=O)O)NC(=O)[C@@H]1CCC(=O)N1)C(=O)N[C@@H](CCCCN)C(=O)O)NC(=O)[C@H](CC(=O)O)NC(=O)[C@H](CCC(=O)O)NC(=O)[C@@H]1CCC(=O)N1)C(=O)O` [GLASPIMOD] showed an HSF of 0 units/mL.

Same assay, conditions: in the assay text read “100 ng/mL” for “1000 ng/mL”
`O=C(N[C@@H](CO)C(=O)O)c1nccnc1C(=O)N[C@H](CO)C(=O)O` was tested, and the HSF was 0 units/mL. In the case of `O=C(N[C@H](CO)C(=O)O)c1nccnc1C(=O)N[C@H](CO)C(=O)O`, the HSF was 0 units/mL.

The molecules below were run on C6 (assay: HSF produced by bone marrow-derived stromal cell lines C6.4 on stimulation with the compound at (1000 ng/mL) was determined in vitro in an GM-CFC assay.). Conditions: not given.
Format: functional, Mus musculus
Work on `NCCCC[C@H](NC(=O)[C@H](CCCC[C@H](NC(=O)[C@H](CC(=O)O)NC(=O)[C@H](CO)NC(=O)c1nccc2ccccc12)C(=O)N[C@@H](CCCCN)C(=O)O)NC(=O)[C@H](CC(=O)O)NC(=O)[C@H](CO)NC(=O)c1nccc2ccccc12)C(=O)O` yielded an HSF of 0 units/mL. In the case of `NCCCC[C@H](NC(=O)[C@H](CCCC[C@H](NC(=O)[C@H](CC(=O)O)NC(=O)[C@H](CO)NC(=O)c1ncccc1O)C(=O)N[C@@H](CCCCN)C(=O)O)NC(=O)[C@H](CC(=O)O)NC(=O)[C@H](CO)NC(=O)c1ncccc1O)C(=O)O`, the HSF was 2.8e+06 units/mL. With `NCCCC[C@H](NC(=O)[C@H](CCCC[C@H](NC(=O)[C@H](CC(=O)O)NC(=O)[C@H](CO)NC(=O)c1ccc2ccccc2n1)C(=O)N[C@@H](CCCCN)C(=O)O)NC(=O)[C@H](CC(=O)O)NC(=O)[C@H](CO)NC(=O)c1ccc2ccccc2n1)C(=O)O` the HSF was 0 units/mL. Molecule `NCCCC[C@H](NC(=O)[C@H](CCCC[C@H](NC(=O)[C@H](CC(=O)O)NC(=O)[C@H](CO)NC(=O)c1cnccn1)C(=O)N[C@@H](CCCCN)C(=O)O)NC(=O)[C@H](CC(=O)O)NC(=O)[C@H](CO)NC(=O)c1cnccn1)C(=O)O` has an HSF of 120000 units/mL. For `NCCCC[C@H](NC(=O)[C@H](CCCC[C@H](NC(=O)[C@H](CC(=O)O)NC(=O)[C@H](CO)NC(=O)c1ccc[nH]1)C(=O)N[C@@H](CCCCN)C(=O)O)NC(=O)[C@H](CC(=O)O)NC(=O)[C@H](CO)NC(=O)c1ccc[nH]1)C(=O)O`, the HSF was 1e+06 units/mL. For `O=C(N[C@@H](CO)C(=O)O)c1ccccc1C(=O)N[C@H](CO)C(=O)O`, the HSF was 0 units/mL. With `NCCCC[C@H](NC(=O)[C@H](CCCC[C@H](NC(=O)[C@H](CC(=O)O)NC(=O)[C@H](CO)NC(=O)c1cc2ccccc2[nH]1)C(=O)N[C@@H](CCCCN)C(=O)O)NC(=O)[C@H](CC(=O)O)NC(=O)[C@H](CO)NC(=O)c1cc2ccccc2[nH]1)C(=O)O` the HSF was 0 units/mL. With `CC(=O)Nc1cccc(C(=O)N[C@@H](CO)C(=O)N[C@@H](CC(=O)O)C(=O)N[C@@H](CCCC[C@H](NC(=O)[C@H](CC(=O)O)NC(=O)[C@H](CO)NC(=O)c2cccc(NC(C)=O)n2)C(=O)N[C@@H](CCCCN)C(=O)O)C(=O)N[C@@H](CCCCN)C(=O)O)n1` the HSF was 2.4e+06 units/mL. `O=C(N[C@H](CO)C(=O)O)c1cccnc1C(=O)N[C@@H](CO)C(=O)O` was tested, and the HSF was 0 units/mL. Molecule `O=C(N[C@@H](CO)C(=O)O)c1cccnc1C(=O)N[C@H](CO)C(=O)O` has an HSF of 1.2e+06 units/mL. Molecule `O=C(NC(CO)C(=O)O)c1nccnc1C(=O)N[C@@H](CO)C(=O)O` (single isomer, unassigned) has an HSF of 0 units/mL.
